Experimental data: patent US20040266623A1, “SYNERGISTIC QUINCLORAC HERBICIDAL COMPOSITIONS” (priority 2003, published 2004)

How the values were obtained:
Experiment in all cases: Greenhouse pot test, postemergent spray, visual control rating converted to percent control
Assay type in all cases: in vivo
plantain = test system: plantain
Procedure: (§1) Pots of crabgrass, dandelion, white clover, and plantain grown in greenhouse soiless growth media were sprayed with a greenhouse pot sprayer at 43.46 gallons of spray solution/acre and allowed to stand in the greenhouse. Visual observation of the effects made by the herbicidal compositions on the plants in the test pots was recorded for control of crabgrass, dandelion, clover and plantain at 24 hours after treatment (HAT), 48 hours after treatment (HAT), 72 hours after treatment (HAT), 7 days after treatment (DAT), 14 days after treatment (DAT) and 21 days after treatment (DAT). A control rating scale of 1 to 9 was used to record the visual observation of the effect of the herbicidal composition on the plants over the time period of the tests. 1=no control, and 9=death of plant, with intervening numbers representing successive degrees of observed effectiveness of the herbicidal composition over time. The 1-9 control rating scale was converted to percent control in the test data charts that follow.
(§2) The test protocol of S. R. Colby as set out in his article entitled “Calculating Synergistic and Antagonistic Responses of Herbicide Compositions,” received for publication Apr. 11, 1966, Contribution No. 3796 and Scientific Article No. 1271 of the Maryland Agricultural Experiment Station, Department pf Agronomy, University of Maryland was followed to evaluate the synergistic properties of the combination of quinclorac plus a herbicidal protox inhibitor, and a combination of quinclorac, plus a herbicidal protox inhibitor plus a herbicidal auxinic agent as compared with the individual herbicides, using Colby's formulas E=X+Y−XY/100 for a two herbicide combination, where E=the expected percent of inhibition of growth by herbicides, X=the percent inhibition of growth by herbicide A at p lb/A, and Y=the percent inhibition of growth by herbicide B at q lb/A, for a given combination of two herbicides. Colby's formula E=X+Y+Z−(XY+XZ+YZ)/100+XYZ/10,000, was used for the three-way herbicide combination evaluation, where E, X and Y are the same as in the two herbicide formula and Z=the percent inhibition of growth by the third herbicide.

dandelion = test system: dandelion
Procedure: as §1, §2

white clover = test system: white clover
Procedure: as §1, §2

crabgrass = test system: crabgrass
Procedure: as §1, §2

[1] = Test 3, 7 DAT, scale 1=no control, 9=death of plant
[2] = Test 3, 14 DAT, scale 1=no control, 9=death of plant
[3] = Test 3, 21 DAT, scale 1=no control, 9=death of plant
[4] = Test 3, 24 HAT, scale 1=no control, 9=death of plant
[5] = Test 3, 72 HAT, scale 1=no control, 9=death of plant
[6] = Test 4, 24 HAT, scale 1=no control, 9=death of plant
[7] = Test 4, 72 HAT, scale 1=no control, 9=death of plant

Cc1cc(Cl)ccc1OCC(=O)OCCCCCC(C)C [MCPA IOE]
% Control Plantain (plantain; Test 4, 7 DAT, 1.10 lbs/A): 66.7%
Control (1-9) Plantain (plantain; Test 4, 7 DAT, 1.10 lbs/A): 6
% Control Plantain (plantain; Test 4, 14 DAT, 1.10 lbs/A): 66.7%
Control (1-9) Plantain (plantain; Test 4, 14 DAT, 1.10 lbs/A): 6
% Control Dandelion (dandelion; Test 4, 7 DAT, 1.10 lbs/A): 44.4%
Control (1-9) Dandelion (dandelion; Test 4, 7 DAT, 1.10 lbs/A): 4
% Control Dandelion (dandelion; Test 4, 14 DAT, 1.10 lbs/A): 55.6%
Control (1-9) Dandelion (dandelion; Test 4, 14 DAT, 1.10 lbs/A): 5
% Control Clover (white clover; Test 4, 7 DAT, 1.10 lbs/A): 66.7%
Control (1-9) Clover (white clover; Test 4, 7 DAT, 1.10 lbs/A): 6
% Control Clover (white clover; Test 4, 14 DAT, 1.10 lbs/A): 100.0%
Control (1-9) Clover (white clover; Test 4, 14 DAT, 1.10 lbs/A): 9
% Control Crabgrass (crabgrass; Test 4, 7 DAT, 1.10 lbs/A): 11.1%
Control (1-9) Crabgrass (crabgrass; Test 4, 7 DAT, 1.10 lbs/A): 1
% Control Crabgrass (crabgrass; Test 4, 14 DAT, 1.10 lbs/A): 11.1%
Control (1-9) Crabgrass (crabgrass; Test 4, 14 DAT, 1.10 lbs/A): 1

O=C(O)c1c(Cl)ccc2cc(Cl)cnc12 [Quinclorac @ 0.375 lbs/A]
% Control Plantain (plantain; Test 3, 7 DAT): 33.3%
Control (1-9) Plantain (plantain; [1]): 3
% Control Plantain (plantain; Test 3, 14 DAT): 44.4%
Control (1-9) Plantain (plantain; [2]): 4
% Control Plantain (plantain; Test 3, 21 DAT): 44.4%
Control (1-9) Plantain (plantain; [3]): 4
% Control Plantain (plantain; Test 3, 24 HAT): 11.1%
Control (1-9) Plantain (plantain; [4]): 1
% Control Plantain (plantain; Test 3, 72 HAT): 22.2%
Control (1-9) Plantain (plantain; [5]): 2
% Control Plantain (plantain; Test 4, 24 HAT): 11.1%
Control (1-9) Plantain (plantain; [6]): 1
% Control Plantain (plantain; Test 4, 72 HAT): 22.2%
Control (1-9) Plantain (plantain; [7]): 2
% Control Dandelion (dandelion; Test 3, 7 DAT): 22.2%
Control (1-9) Dandelion (dandelion; [1]): 2
% Control Dandelion (dandelion; Test 3, 14 DAT): 44.4%
Control (1-9) Dandelion (dandelion; [2]): 4
% Control Dandelion (dandelion; Test 3, 21 DAT): 55.6%
Control (1-9) Dandelion (dandelion; [3]): 5
% Control Dandelion (dandelion; Test 3, 24 HAT): 11.1%
Control (1-9) Dandelion (dandelion; [4]): 1
% Control Dandelion (dandelion; Test 3, 72 HAT): 22.2%
Control (1-9) Dandelion (dandelion; [5]): 2
% Control Dandelion (dandelion; Test 4, 24 HAT): 22.2%
Control (1-9) Dandelion (dandelion; [6]): 2
% Control Dandelion (dandelion; Test 4, 72 HAT): 22.2%
Control (1-9) Dandelion (dandelion; [7]): 2
% Control Clover (white clover; Test 3, 7 DAT): 44.4%
Control (1-9) Clover (white clover; [1]): 4
% Control Clover (white clover; Test 3, 14 DAT): 55.6%
Control (1-9) Clover (white clover; [2]): 5
% Control Clover (white clover; Test 3, 21 DAT): 88.9%
Control (1-9) Clover (white clover; [3]): 8
% Control Clover (white clover; Test 3, 24 HAT): 11.1%
Control (1-9) Clover (white clover; [4]): 1
% Control Clover (white clover; Test 3, 72 HAT): 22.2%
Control (1-9) Clover (white clover; [5]): 2
% Control Clover (white clover; Test 4, 24 HAT): 11.1%
Control (1-9) Clover (white clover; [6]): 1
% Control Clover (white clover; Test 4, 72 HAT): 22.2%
Control (1-9) Clover (white clover; [7]): 2
% Control Crabgrass (crabgrass; Test 3, 7 DAT): 22.2%
Control (1-9) Crabgrass (crabgrass; [1]): 2
% Control Crabgrass (crabgrass; Test 3, 14 DAT): 44.4%
Control (1-9) Crabgrass (crabgrass; [2]): 4
% Control Crabgrass (crabgrass; Test 3, 21 DAT): 66.7%
Control (1-9) Crabgrass (crabgrass; [3]): 6
% Control Crabgrass (crabgrass; Test 3, 24 HAT): 11.1%
Control (1-9) Crabgrass (crabgrass; [4]): 1
% Control Crabgrass (crabgrass; Test 3, 72 HAT): 11.1%
Control (1-9) Crabgrass (crabgrass; [5]): 1
% Control Crabgrass (crabgrass; Test 4, 24 HAT): 11.1%
Control (1-9) Crabgrass (crabgrass; [6]): 1
% Control Crabgrass (crabgrass; Test 4, 72 HAT): 11.1%
Control (1-9) Crabgrass (crabgrass; [7]): 1

O=C(O)c1c(Cl)ccc2cc(Cl)cnc12 [Quinclorac @ 0.75 lbs/A]
% Control Plantain (plantain; Test 3, 7 DAT): 33.3%
Control (1-9) Plantain (plantain; [1]): 3
% Control Plantain (plantain; Test 3, 14 DAT): 55.6%
Control (1-9) Plantain (plantain; [2]): 5
% Control Plantain (plantain; Test 3, 21 DAT): 55.6%
Control (1-9) Plantain (plantain; [3]): 5
% Control Plantain (plantain; Test 3, 24 HAT): 11.1%
Control (1-9) Plantain (plantain; [4]): 1
% Control Plantain (plantain; Test 3, 72 HAT): 22.2%
Control (1-9) Plantain (plantain; [5]): 2
% Control Plantain (plantain; Test 4, 24 HAT): 11.1%
Control (1-9) Plantain (plantain; [6]): 1
% Control Plantain (plantain; Test 4, 72 HAT): 33.3%
Control (1-9) Plantain (plantain; [7]): 3
% Control Dandelion (dandelion; Test 3, 7 DAT): 22.2%
Control (1-9) Dandelion (dandelion; [1]): 2
% Control Dandelion (dandelion; Test 3, 14 DAT): 44.4%
Control (1-9) Dandelion (dandelion; [2]): 4
% Control Dandelion (dandelion; Test 3, 21 DAT): 33.3%
Control (1-9) Dandelion (dandelion; [3]): 3
% Control Dandelion (dandelion; Test 3, 24 HAT): 11.1%
Control (1-9) Dandelion (dandelion; [4]): 1
% Control Dandelion (dandelion; Test 3, 72 HAT): 22.2%
Control (1-9) Dandelion (dandelion; [5]): 2
% Control Dandelion (dandelion; Test 4, 24 HAT): 11.1%
Control (1-9) Dandelion (dandelion; [6]): 1
% Control Dandelion (dandelion; Test 4, 72 HAT): 22.2%
Control (1-9) Dandelion (dandelion; [7]): 2
% Control Clover (white clover; Test 3, 7 DAT): 44.4%
Control (1-9) Clover (white clover; [1]): 4
% Control Clover (white clover; Test 3, 14 DAT): 55.6%
Control (1-9) Clover (white clover; [2]): 5
% Control Clover (white clover; Test 3, 21 DAT): 88.9%
Control (1-9) Clover (white clover; [3]): 8
% Control Clover (white clover; Test 3, 24 HAT): 11.1%
Control (1-9) Clover (white clover; [4]): 1
% Control Clover (white clover; Test 3, 72 HAT): 22.2%
Control (1-9) Clover (white clover; [5]): 2
% Control Clover (white clover; Test 4, 24 HAT): 11.1%
Control (1-9) Clover (white clover; [6]): 1
% Control Clover (white clover; Test 4, 72 HAT): 22.2%
Control (1-9) Clover (white clover; [7]): 2
% Control Crabgrass (crabgrass; Test 3, 7 DAT): 22.2%
Control (1-9) Crabgrass (crabgrass; [1]): 2
% Control Crabgrass (crabgrass; Test 3, 14 DAT): 66.7%
Control (1-9) Crabgrass (crabgrass; [2]): 6
% Control Crabgrass (crabgrass; Test 3, 21 DAT): 77.8%
Control (1-9) Crabgrass (crabgrass; [3]): 7
% Control Crabgrass (crabgrass; Test 3, 24 HAT): 11.1%
Control (1-9) Crabgrass (crabgrass; [4]): 1
% Control Crabgrass (crabgrass; Test 3, 72 HAT): 22.2%
Control (1-9) Crabgrass (crabgrass; [5]): 2
% Control Crabgrass (crabgrass; Test 4, 24 HAT): 11.1%
Control (1-9) Crabgrass (crabgrass; [6]): 1
% Control Crabgrass (crabgrass; Test 4, 72 HAT): 22.2%
Control (1-9) Crabgrass (crabgrass; [7]): 2
